The values below come from patent publication US20240425518A1, “N-MACROCYCLIC AMIDE COMPOUNDS, PREPARATION METHODS THEREOF AND APPLICATIONS THEREOF AS MEDICAMENTS” (Chengdu FANXI Biopharma Co., Ltd., priority 2023, published 2024).

Structures are written as SMILES.

What all share (assay type): biochemical
One assay deals with T1, Flt3 (h) (Homo sapiens, UniProt P36888).
T1 construct: purchased Eurofins
T1 sequence (P36888 27-993): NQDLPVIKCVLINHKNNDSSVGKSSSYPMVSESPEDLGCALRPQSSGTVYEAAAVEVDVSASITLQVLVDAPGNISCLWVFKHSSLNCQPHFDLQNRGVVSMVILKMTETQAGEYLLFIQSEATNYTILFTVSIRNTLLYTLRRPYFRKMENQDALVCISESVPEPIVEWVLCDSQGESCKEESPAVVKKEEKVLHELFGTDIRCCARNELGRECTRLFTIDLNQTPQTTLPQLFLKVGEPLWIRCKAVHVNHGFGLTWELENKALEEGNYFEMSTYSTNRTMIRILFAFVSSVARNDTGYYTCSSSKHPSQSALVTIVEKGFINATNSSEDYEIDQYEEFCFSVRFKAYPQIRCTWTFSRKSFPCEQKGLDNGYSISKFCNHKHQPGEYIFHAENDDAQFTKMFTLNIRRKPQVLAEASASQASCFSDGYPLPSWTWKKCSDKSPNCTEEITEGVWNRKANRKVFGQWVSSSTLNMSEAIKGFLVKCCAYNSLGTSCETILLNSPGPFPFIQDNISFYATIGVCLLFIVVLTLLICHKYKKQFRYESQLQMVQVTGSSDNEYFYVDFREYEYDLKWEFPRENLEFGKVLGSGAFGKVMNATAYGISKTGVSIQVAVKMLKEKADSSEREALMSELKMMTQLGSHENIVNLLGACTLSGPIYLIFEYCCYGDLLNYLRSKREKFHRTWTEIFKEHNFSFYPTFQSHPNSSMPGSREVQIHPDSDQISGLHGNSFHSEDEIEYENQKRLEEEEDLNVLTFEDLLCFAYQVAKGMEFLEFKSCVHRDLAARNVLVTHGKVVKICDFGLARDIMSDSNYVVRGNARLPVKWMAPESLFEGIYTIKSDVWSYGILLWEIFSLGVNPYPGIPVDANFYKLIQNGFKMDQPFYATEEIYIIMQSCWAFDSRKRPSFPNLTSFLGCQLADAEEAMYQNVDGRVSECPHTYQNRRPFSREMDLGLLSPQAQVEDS
In words: Radioisotope labeling kinase assay (Eurofins), Flt3. To be noted: for activity at 1 µM: 1 μM compound, read-out: Inhibitory activity per unit concentration/Activity % Flt3 (h).

Another assay concerns the target T2, TrkA (h) (Homo sapiens, UniProt P04629).
T2 construct: purchased Eurofins
As to the kind of experiment: Radioisotope labeling kinase assay (Eurofins), TrkA. As for the experimental part:
An activity to a human recombinant protein kinase of a series of compounds was determined by a radioisotope labeling method, which was provided by Eurofins Company. A compound to be detected was mixed with a corresponding protein kinase buffer (20 mM propyl sulfonate (MOPS, […].), 1 mM EDTA, 0.10 β-mercaptoethanol, 0.010 Brij-35, […], and 1 mg/mL BSA), the mixture was added into a reaction system (100 μM reaction substrate […], 8 mM MOPS with a pH value of 7.0, 10 mM MgAcetate, 0.2 mM EDTA, and a certain concentration of γ-^33P-ATP). After adding an MgATP composite solution, the reaction was started at room temperature for 40 minutes, and the reaction was terminated by adding 5 μl of […] solution. Then, 10 μl of reaction solution was dropwise added onto a filter and washed with 75 mM phosphoric acid solution for three times, 5 minutes each time, then washed with methanol once again, and dried and subjected to scintillation counting.

The next assay addresses T3, JAK3 (h) (Homo sapiens, UniProt P52333).
T3 construct: purchased Eurofins
T3 sequence (P52333 1-1124): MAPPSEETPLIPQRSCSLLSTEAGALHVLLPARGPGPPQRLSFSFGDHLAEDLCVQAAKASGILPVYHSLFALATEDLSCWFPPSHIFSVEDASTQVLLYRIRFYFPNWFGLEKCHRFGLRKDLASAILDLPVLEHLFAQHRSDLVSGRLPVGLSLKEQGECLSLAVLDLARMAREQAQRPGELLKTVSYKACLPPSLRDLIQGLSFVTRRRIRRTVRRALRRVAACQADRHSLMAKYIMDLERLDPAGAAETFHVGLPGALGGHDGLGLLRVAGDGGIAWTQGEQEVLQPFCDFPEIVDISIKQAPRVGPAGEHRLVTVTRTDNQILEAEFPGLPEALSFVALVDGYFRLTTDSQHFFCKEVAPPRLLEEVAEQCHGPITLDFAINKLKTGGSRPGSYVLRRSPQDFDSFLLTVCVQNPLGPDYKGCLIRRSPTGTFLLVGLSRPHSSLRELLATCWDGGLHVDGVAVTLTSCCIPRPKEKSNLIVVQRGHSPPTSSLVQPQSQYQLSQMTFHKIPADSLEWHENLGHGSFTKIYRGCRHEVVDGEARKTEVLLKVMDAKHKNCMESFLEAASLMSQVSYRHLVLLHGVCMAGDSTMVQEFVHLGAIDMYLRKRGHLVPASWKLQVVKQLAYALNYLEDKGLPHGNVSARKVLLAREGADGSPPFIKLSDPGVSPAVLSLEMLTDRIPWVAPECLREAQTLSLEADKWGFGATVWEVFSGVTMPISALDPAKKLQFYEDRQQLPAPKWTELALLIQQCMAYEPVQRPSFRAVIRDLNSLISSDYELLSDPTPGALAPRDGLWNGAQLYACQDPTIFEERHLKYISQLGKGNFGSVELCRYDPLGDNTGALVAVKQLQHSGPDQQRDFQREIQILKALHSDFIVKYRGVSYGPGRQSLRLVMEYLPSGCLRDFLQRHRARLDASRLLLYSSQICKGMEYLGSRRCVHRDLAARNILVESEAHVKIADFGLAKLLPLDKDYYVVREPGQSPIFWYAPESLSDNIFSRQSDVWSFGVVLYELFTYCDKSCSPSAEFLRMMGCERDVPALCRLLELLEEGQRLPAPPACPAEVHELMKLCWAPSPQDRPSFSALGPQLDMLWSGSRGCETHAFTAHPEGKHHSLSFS
In words: Radioisotope labeling kinase assay (Eurofins), JAK3. To be noted: for activity at 1 µM: 1 μM compound, read-out: Inhibitory activity per unit concentration/Activity % JAK3 (h).

A further assay concerns the target T4, BTK (h) (Homo sapiens, UniProt Q06187).
T4 construct: purchased Eurofins
In words: Radioisotope labeling kinase assay (Eurofins), BTK. To be noted: for activity at 1 µM: 1 μM compound, read-out: Inhibitory activity per unit concentration/Activity % BTK (h).

T4 sequence (Q06187 whole entry): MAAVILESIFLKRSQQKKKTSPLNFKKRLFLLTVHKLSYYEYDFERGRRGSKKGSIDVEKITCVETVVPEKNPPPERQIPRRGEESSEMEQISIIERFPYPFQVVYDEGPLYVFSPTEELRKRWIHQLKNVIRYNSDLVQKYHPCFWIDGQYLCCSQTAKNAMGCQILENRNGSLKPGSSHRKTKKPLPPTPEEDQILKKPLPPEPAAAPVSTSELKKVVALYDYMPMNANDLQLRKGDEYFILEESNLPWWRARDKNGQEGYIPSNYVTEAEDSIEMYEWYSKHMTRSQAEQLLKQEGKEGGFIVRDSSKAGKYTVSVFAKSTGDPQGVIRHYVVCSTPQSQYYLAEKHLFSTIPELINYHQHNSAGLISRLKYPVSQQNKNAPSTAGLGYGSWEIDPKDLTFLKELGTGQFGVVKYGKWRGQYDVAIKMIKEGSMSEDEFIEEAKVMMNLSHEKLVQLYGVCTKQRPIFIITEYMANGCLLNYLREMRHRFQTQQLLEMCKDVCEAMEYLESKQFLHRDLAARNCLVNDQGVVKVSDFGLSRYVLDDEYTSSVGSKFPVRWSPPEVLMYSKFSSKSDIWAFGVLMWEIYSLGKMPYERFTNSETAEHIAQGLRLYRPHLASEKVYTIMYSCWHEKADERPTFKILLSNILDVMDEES
T2 sequence (P04629 33-796): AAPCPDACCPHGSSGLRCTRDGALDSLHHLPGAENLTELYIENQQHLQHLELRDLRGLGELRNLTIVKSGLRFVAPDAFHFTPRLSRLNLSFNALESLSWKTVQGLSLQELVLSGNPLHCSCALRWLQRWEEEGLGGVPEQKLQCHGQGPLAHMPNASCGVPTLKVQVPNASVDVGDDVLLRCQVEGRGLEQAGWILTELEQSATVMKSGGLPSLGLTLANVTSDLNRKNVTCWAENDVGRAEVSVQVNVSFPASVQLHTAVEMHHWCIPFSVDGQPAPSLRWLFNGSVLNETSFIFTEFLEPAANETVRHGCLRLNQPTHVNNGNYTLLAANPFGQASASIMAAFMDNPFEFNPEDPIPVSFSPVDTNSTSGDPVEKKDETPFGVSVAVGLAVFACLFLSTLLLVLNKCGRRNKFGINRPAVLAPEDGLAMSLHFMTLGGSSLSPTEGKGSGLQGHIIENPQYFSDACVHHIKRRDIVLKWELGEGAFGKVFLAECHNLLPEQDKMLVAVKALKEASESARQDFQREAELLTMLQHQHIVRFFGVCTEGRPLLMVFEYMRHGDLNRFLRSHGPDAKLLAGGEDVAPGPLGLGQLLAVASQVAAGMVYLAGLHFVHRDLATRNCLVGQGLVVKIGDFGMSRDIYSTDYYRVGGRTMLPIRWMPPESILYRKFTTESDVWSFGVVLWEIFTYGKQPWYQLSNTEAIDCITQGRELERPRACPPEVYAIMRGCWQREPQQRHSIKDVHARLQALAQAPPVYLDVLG

Regarding `C/C=C/C(=O)Nc1cc2cc(c1)Nc1nccc(n1)-c1cccc(c1)COC/C=C/COC2` [XVI-4], the IC50 (commonly the concentration needed to halve the response being measured) was found to be 5 nM on Flt3 (h), 2 nM against TrkA (h) and 238 nM on BTK (h). Further, the activity at 1 µM at Flt3 (h) amounted to 5%; on JAK3 (h), 11%; on BTK (h), 9%.

As to `CN(C)C/C=C/C(=O)Nc1cc2cc(c1)Nc1nccc(n1)-c1cccc(c1)COC/C=C/COC2` [XVI-8], the IC50 against Flt3 (h) came to 9 nM; against TrkA (h) it was 3 nM; on BTK (h), 48 nM. The activity at 1 µM on Flt3 (h) amounted to 2%; at JAK3 (h), 19%; at BTK (h), 9%.

As to `CN(C)C/C=C/C(=O)Nc1cc2cc(c1)Nc1nccc(n1)-c1cccc(c1)COC/C=C/CN(C)C2` [XVI-26], the IC50 against Flt3 (h) was found to be 21 nM; at TrkA (h), 28 nM; against BTK (h), 1250 nM. Besides, the activity at 1 µM on Flt3 (h) stood at 7%; on JAK3 (h), 74%; at BTK (h), 50%.

As to `O=C(/C=C/CN1CCOCC1)Nc1cc2cc(c1)Nc1nccc(n1)-c1cccc(c1)COC/C=C/COC2` [XVI-3], the 50% inhibitory concentration (IC50) against Flt3 (h) worked out at 4 nM; against TrkA (h) it was 2 nM; against BTK (h), 40 nM. Moreover, the activity at 1 µM came to 3% at Flt3 (h), 8% on JAK3 (h) and 7% at BTK (h).

Take `C=CC(=O)Nc1cc2cc(c1)Nc1nccc(n1)-c1cccc(c1)COC/C=C/COC2` [XVI-6]: the figures for the half-maximal inhibitory concentration (IC50) against Flt3 (h), on TrkA (h) and against BTK (h) were 15 nM, 2 nM and 348 nM, respectively. Further, the activity at 1 µM is 5% at Flt3 (h), 16% at JAK3 (h) and 16% on BTK (h).

Turning to `O=C(/C=C/C(=O)N1CCNCC1)Nc1cc2cc(c1)Nc1nccc(n1)-c1cccc(c1)COC/C=C/COC2` [XVI-11], the concentration for half-maximal inhibition (IC50) against Flt3 (h) stood at 22 nM; at TrkA (h), 21 nM; at JAK3 (h), 151 nM. Besides, the activity at 1 µM stood at 1% at Flt3 (h), 6% at JAK3 (h) and 18% on BTK (h).

With `O=C(/C=C/CN1CCCC1)Nc1cc2cc(c1)Nc1nccc(n1)-c1cccc(c1)COC/C=C/COC2` [XVI-1], the concentration for half-maximal inhibition (IC50) at Flt3 (h) was determined as 2 nM; against TrkA (h) it was 1 nM; against BTK (h) it was 29 nM. Besides, the activity at 1 µM on Flt3 (h) came out at 1%; on JAK3 (h), 9%; on BTK (h), 2%.

Regarding `O=C(/C=C/C(=O)N1CCOCC1)Nc1cc2cc(c1)Nc1nccc(n1)-c1cccc(c1)COC/C=C/COC2` [XVI-10], the IC50 at Flt3 (h) stood at 21 nM; against TrkA (h) it was 16 nM; on JAK3 (h), 44 nM. The activity at 1 µM was determined as 3% on Flt3 (h), 2% at JAK3 (h) and 31% on BTK (h).

For `C#CC(=O)Nc1cc2cc(c1)Nc1nccc(n1)-c1cccc(c1)COC/C=C/COC2` [XVII-1], the IC50 against Flt3 (h) was 7 nM; at TrkA (h) it was 2 nM. Besides, the activity at 1 µM at Flt3 (h) worked out at 4%; on JAK3 (h), 16%; on BTK (h) it was 8%.

As for `Nc1cc2cc(c1)Nc1nccc(n1)-c1cccc(c1)COC/C=C/COC2` [XIII-1], the IC50 against Flt3 (h) came out at 8 nM; on TrkA (h), 2 nM; against BTK (h), 157 nM. Also, the activity at 1 µM on Flt3 (h) amounted to 4%; at JAK3 (h), 10%; at BTK (h), 6%.

For `O=C(O)/C=C/C(=O)Nc1cc2cc(c1)Nc1nccc(n1)-c1cccc(c1)COC/C=C/COC2` [XVI-9], the IC50 at Flt3 (h) came out at 31 nM; on TrkA (h), 3 nM; on JAK3 (h), 17 nM. The results for the activity at 1 µM at Flt3 (h), on JAK3 (h) and at BTK (h) were 4%, 4% and 62%, respectively.

Regarding `C/C=C/C(=O)Nc1cc2cc(c1)Nc1nccc(n1)-c1cccc(c1)COC/C=C/CN(C)C2` [XVI-28], the values for the concentration for half-maximal inhibition (IC50) on Flt3 (h), against TrkA (h) and against BTK (h) were 9 nM, 20 nM and 1470 nM, respectively. Also, the activity at 1 µM at Flt3 (h) came out at 8%; at JAK3 (h) it was 51%; on BTK (h) it was 57%.

Consider `C1=C/COCc2cccc(c2)-c2ccnc(n2)Nc2cc(cc(OC/C=C/CN3CCCC3)c2)COC/1` [XVI-12], for which the 50% inhibitory concentration (IC50) was found to be 15 nM on Flt3 (h) and 18 nM against TrkA (h). Besides, the activity at 1 µM was -8% on Flt3 (h), 26% at JAK3 (h) and 38% on BTK (h).
